Assay type in all cases: in vivo
Assay [1] deals with Beet Armyworm (BAW) (Spodoptera exigua). The assay is described as follows: Bioassay on beet armyworm (BAW), 128-well diet tray assay. The following applies: Spodoptera exigua; beet armyworm, 50 μg/cm^2; read-out: % Mortality BAW 50 μg/cm^2.
Assay [2] has as its system Corn Earworm (CEW) (Helicoverpa zea). The assay is described as follows: Bioassay on corn earworm (CEW), 128-well diet tray assay. The following applies: Helicoverpa zea; corn earworm, 50 μg/cm^2; read-out: % Mortality CEW 50 μg/cm^2. An outline of the steps:
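Activity was scored as percent larval mortality per well, averaged across eight wells and reported on a rating scale. Diet trays (128-well) were kept at 25° C with 14:10 light-dark for five to seven days.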

In assay [3] the test system is Green Peach Aphid (GPA) (Myzus persicae). The assay is described as follows: Bioassay on green peach aphid (GPA), foliar spray on cabbage seedlings. The following applies: green peach aphid, 200 ppm, read-out: % Mortality GPA 200 ppm. The procedure:
Certain molecules disclosed in this document were tested against GPA using procedures described in the following example. In the reporting of the results, the “GPA Rating Table” was used (See Table Section).
Cabbage seedlings grown in 3-inch pots, with 2-3 small (3-5 cm) true leaves, were used as test substrate. The seedlings were infested with 20-50 GPA (wingless adult and nymph stages) one day prior to chemical application. Four pots with individual seedlings were used for each treatment. Test compounds (2 mg) were dissolved in 2 mL of acetone/methanol (1:1) solvent, forming stock solutions of 1000 ppm test compound. […] A hand-held aspirator-type sprayer was used for spraying a solution to both sides of […] leaves until runoff. Reference plants (solvent check) were sprayed with the diluent only containing 20% by volume of acetone/methanol (1:1) solvent. Treated plants were held in a holding room for three days at approximately 25° C. and ambient relative humidity (RH) prior to grading. Evaluation was conducted by counting the number of live aphids per plant under a microscope. […] Corrected % Control=100*(X−Y)/X • where • X=No. of live aphids on solvent check plants and • Y=No. of live aphids on treated plants
The results are indicated in the table entitled “Table 5: Biological Results” (See Table Section).

The structures appear in SMILES notation.

For `COc1ccc(N2/C(=N/N=C/c3ccc(-c4ncn(-c5ccc(OC(F)(F)F)cc5)n4)cc3)SCC2(C)O)c(C)c1` (stereo not drawn) [Compound 245C], the mortality at 50 µg/cm2 in assay [1] and in assay [2] was 50 to 100% each time. In addition, the mortality at 200 ppm in assay [3] is 0 to 80%.

In the case of `Cc1cccc(C)c1/N=C1\SCC(=O)N1/N=C/c1ccc(-c2ncn(-c3ccc(OC(F)(F)F)cc3)n2)cc1` [Compound 81C], the mortality at 50 µg/cm2 in assay [1] and in assay [2] was 50 to 100% each time. In addition, the mortality at 200 ppm in assay [3] amounted to 0%.

For `Cc1cccc(C)c1/N=C(/N/N=C/c1ccc(-c2ncn(-c3ccc(OC(F)(F)F)cc3)n2)cc1)SCc1ccc(C(F)(F)F)o1` [Compound 16C], the mortality at 50 µg/cm2 in assay [1] and in assay [2] was 50 to 100% in each case. Also, in assay [3], the mortality at 200 ppm stood at 0%.

Turning to `CC(C)c1ccccc1N1CCCS/C1=N\N=C\c1ccc(-c2ncn(-c3ccc(C(F)(F)F)cc3)n2)cc1` [Compound 179C], the mortality at 50 µg/cm2 in assay [1] and in assay [2] was 50 to 100% in each case. Moreover, the mortality at 200 ppm in assay [3] worked out at 0%.

On to `Cc1cnccc1N1C(=O)CS/C1=N\N=C\c1ccc(-c2ncn(-c3ccc(OC(F)(F)F)cc3)n2)cc1` [Compound 118C], for which the mortality at 50 µg/cm2 in assay [1] and in assay [2] was 50 to 100% throughout. Also, in assay [3], the mortality at 200 ppm came to 0%.

For `CC1S/C(=N\N=C\c2ccc(-c3ncn(-c4ccc(OC(F)(F)F)cc4)n3)cc2)N(c2ccccc2C(C)C)C1=O` (stereo not drawn) [Compound 88C], the mortality at 50 µg/cm2 in assay [1] and in assay [2] was 50 to 100% in each case. Besides, the mortality at 200 ppm in assay [3] lay in the range of 0 to 80%.

For the compound `CCc1ccccc1N1/C(=N/N=C/c2ccc(-c3ncn(-c4ccc(OC(F)(F)F)cc4)n3)cc2)SCC1(C)O` (stereo not drawn) [Compound 254C], the mortality at 50 µg/cm2 in assay [1] and in assay [2] was 50 to 100% each time. In addition, the mortality at 200 ppm in assay [3] was 0 to 80%.

Regarding `COc1cc(C)c(N2CCCS/C2=N\N=C\c2ccc(-c3ncn(-c4ccc(OC(F)(F)F)cc4)n3)cc2)c(C)c1` [Compound 181C], the mortality at 50 µg/cm2 in assay [1] and in assay [2] was 50 to 100% throughout. Moreover, the mortality at 200 ppm in assay [3] was in the range of 0 to 80%.

For the compound `COCCOC(C)C(=O)OCS/C(=N\c1c(C)cccc1C)N/N=C/c1ccc(-c2ncn(-c3ccc(OC(F)(F)F)cc3)n2)cc1` (stereo not drawn) [Compound 41C], the mortality at 50 µg/cm2 in assay [1] and in assay [2] was 50 to 100% throughout. Moreover, in assay [3], the mortality at 200 ppm is 0%.

For `COc1cc(C)c(/N=C(/N/N=C/c2ccc(-c3ncn(-c4ccc(OC(F)(F)F)cc4)n3)cc2)SCOC(=O)C(C)OCC(F)(F)F)c(C)c1` (stereo not drawn) [Compound 38C], the mortality at 50 µg/cm2 in assay [1] and in assay [2] was 50 to 100% throughout. For the same compound, the mortality at 200 ppm in assay [3] came to 0%.

With `Cc1cccc(C)c1/N=C(/N/N=C/c1ccc(-c2ncn(-c3ccc(OC(F)(F)F)cc3)n2)cc1)SC/C=C/Br` [Compound 4C], the mortality at 50 µg/cm2 in assay [1] and in assay [2] was 50 to 100% each time. The mortality at 200 ppm in assay [3] fell in the range of 0 to 80%.

On to `CCC(C)c1ccccc1N1CCCS/C1=N\N=C\c1ccc(-c2ncn(-c3ccc(OC(F)(F)F)cc3)n2)cc1` (stereo not drawn) [Compound 183C], for which the mortality at 50 µg/cm2 in assay [1] and in assay [2] was 50 to 100% throughout. For the same compound, the mortality at 200 ppm in assay [3] was 0%.

As for `CCc1cccc(C)c1N1C(=O)CS/C1=N\N=C\c1ccc(-c2ncn(-c3ccc(OC(F)(F)F)cc3)n2)cc1` [Compound 111C], the mortality at 50 µg/cm2 in assay [1] and in assay [2] was 50 to 100% each time. Besides, the mortality at 200 ppm in assay [3] lay in the range of 0 to 80%.

Take `Cc1cccc(C)c1/N=C(/N/N=C/c1ccc(-c2ncn(-c3ccc(OC(F)(F)F)cc3)n2)cc1)SCc1ccc(S(=O)(=O)Nc2ccc(F)cc2)cc1` [Compound 18C]: the mortality at 50 µg/cm2 in assay [1] and in assay [2] was 50 to 100% each time. In assay [3], the mortality at 200 ppm lay in the range of 0 to 80%.

`CCC(C)c1ccccc1N1CCS/C1=N\N=C\c1ccc(-c2ncn(-c3ccc(OC(F)(F)F)cc3)n2)cc1` (stereo not drawn) [Compound 135C]: the mortality at 50 µg/cm2 in assay [1] and in assay [2] was 50 to 100% in each case. The mortality at 200 ppm in assay [3] was found to be 0%.

For the compound `CC(C)c1ccccc1N1/C(=N/N=C/c2ccc(-c3ncn(-c4ccc(OC(F)(F)F)cc4)n3)cc2)SCC1(O)c1ccccc1C(F)(F)F` (stereo not drawn) [Compound 263C], the mortality at 50 µg/cm2 in assay [1] and in assay [2] was 50 to 100% throughout. In addition, the mortality at 200 ppm in assay [3] is 0 to 80%.

For the compound `Cc1cccc(C)c1/N=C(/N/N=C/c1ccc(-c2ncn(-c3ccc(OC(F)(F)F)cc3)n2)cc1)SCC(=O)NCCCN` [Compound 66C], the mortality at 50 µg/cm2 in assay [1] and in assay [2] was 50 to 100% in each case. Further, the mortality at 200 ppm in assay [3] was in the range of 0 to 80%.

As to `CC(C)c1ccccc1N1CCS/C1=N\N=C\c1ccc(-c2ncn(-c3ccc(OC(F)(F)F)cc3)n2)cc1` [Compound 132C], the mortality at 50 µg/cm2 in assay [1] and in assay [2] was 50 to 100% in each case. In assay [3], the mortality at 200 ppm fell in the range of 0 to 80%.

As to `Cc1cccc(Cl)c1-n1c(C)cs/c1=N\N=C\c1ccc(-c2ncn(-c3ccc(OC(F)(F)F)cc3)n2)cc1` [Compound 174C], the mortality at 50 µg/cm2 in assay [1] and in assay [2] was 50 to 100% throughout. Moreover, the mortality at 200 ppm in assay [3] lay in the range of 0 to 80%.

Turning to `COc1cc(Cl)c(/N=C(/N/N=C/c2ccc(-c3ncn(-c4ccc(OC(F)(F)F)cc4)n3)cc2)SCOC(=O)OC(C)C)c(Cl)c1` [Compound 33C], the mortality at 50 µg/cm2 in assay [1] and in assay [2] was 50 to 100% throughout. For the same compound, the mortality at 200 ppm in assay [3] lay in the range of 0 to 80%.

`CCCS/C(=N\c1c(Cl)cccc1Cl)N/N=C/c1ccc(-c2ncn(-c3ccc(OC(F)(F)F)cc3)n2)cc1` [Compound 3C]: the mortality at 50 µg/cm2 in assay [1] and in assay [2] was 50 to 100% in each case. In assay [3], the mortality at 200 ppm is 0%.

As to `Cc1ccc(C(C)C)c(N2/C(=N/N=C/c3ccc(-c4ncn(-c5ccc(OC(F)(F)F)cc5)n4)cc3)SCC2(C)O)c1` (stereo not drawn) [Compound 253C], the mortality at 50 µg/cm2 in assay [1] and in assay [2] was 50 to 100% each time. Further, in assay [3], the mortality at 200 ppm is 0%.

As to `CC(C)c1ccccc1/N=C1\SCCCN1/N=C/c1ccc(-c2ncn(-c3ccc(C(F)(F)F)cc3)n2)cc1` [Compound 87C, (2Z,NE)-2-((2-isopropylphenyl)imino)-N-(4-(1-(4-(trifluoromethyl)phenyl)-1H-1,2,4-triazol-3-yl)benzylidene)-1,3-thiazinan-3-amine], in assay [3], the mortality at 200 ppm was 0 to 80%.

In the case of `COc1cc(C)c(/N=C(/N/N=C(\C)c2ccc(-c3ncn(-c4ccc(OC(F)(F)F)cc4)n3)cc2)SCOC(=O)C(C)C)c(C)c1` [Compound 26C], the mortality at 200 ppm in assay [3] came to 0%.

Regarding `COc1cc(Cl)c(/N=C(/N/N=C/c2ccc(-c3ncn(-c4ccc(OC(F)(F)F)cc4)n3)cc2)SCOC(=O)C(C)C)c(Cl)c1` [Compound 34C], the mortality at 200 ppm in assay [3] is 0 to 80%.

With `COCCC(=O)S/C(=N\c1c(C)cccc1C)N/N=C/c1ccc(-c2ncn(-c3ccc(OC(F)(F)F)cc3)n2)cc1` [Compound 21C], the mortality at 200 ppm in assay [3] is 0%.

For `Cc1cccc(C)c1/N=C(/N/N=C/c1ccc(-c2ncn(-c3ccc(OC(F)(F)F)cc3)n2)cc1)SCOC(=O)C(C)OCC(F)(F)F` (stereo not drawn) [Compound 39C], the mortality at 200 ppm in assay [3] was 0%.

Turning to `CCOCC(=O)OCS/C(=N\c1c(Cl)cc(OC)cc1Cl)N/N=C/c1ccc(-c2ncn(-c3ccc(OC(F)(F)F)cc3)n2)cc1` [Compound 32C], the mortality at 200 ppm in assay [3] lay in the range of 0 to 80%.
